The record followed here is patent publication US6436631B1, “Comparative phenotype analysis for assessment of biologically active compounds such as antimicrobials” (priority 2000, dated 2002).

Where a SMILES comes first, the peptide text is derived from it.

The test system of assay [1] is E. coli (MG1655). As to the kind of experiment: BAC combination (synergy/antagonism) testing in ES1, ES2 and ES3 MicroPlate sensitivity panels, tetrazolium violet. The class given is cell-based. The method, then: In this Example, the susceptibility of E. coli (MG1655) was tested in the presence of vancomycin (10 μg/ml) or sulfamethoxazole (235 μg/ml) in microarrays containing various additional compounds. The microarrays were present in three Biolog™ sensitivity test panels, referred to as ES1, ES2 and ES3 MicroPlates™. The organisms were added to a sterile aqueous suspension containing 0.40% NaCl, 0.03% pluronic F68, 0.01% phytagel, and 0.01% tetrazolium violet, to a cell density of 85% transmittance (as measured using a BiologTm turbidimeter). The BAC to be tested was added to the suspension just prior to inoculating the organisms (100 μl/well) into the wells of the microarrays. The wells of these ES MicroPlates™ contained a basal broth medium consisting of tryptone (2 g/L), yeast extract (1 g/L), and NaCl (1 g/L). […]

In assay [2] the test system is E. coli MG1655. In words: phenotype microarray (PM) comparative profiling of antimicrobials, S-O-R scoring, distance matrix and dendrogram. The class given is cell-based. The note with it: 7 PMs; for clustering in dendrogram of PM S-O-R response (FIG. 4): 1x level of each antimicrobial (lowest concentration giving detectable inhibition of respiration), 665 phenotypes, 48 hours; for PM response pattern (fingerprint) of cells exposed to the antimicrobial: partially inhibitory concentrations (1x, 2x). An excerpt:
In this Example, experiments are described in which the feasibility of using PMs for analyzing the metabolic effects of antimicrobial compounds and their mechanisms of action were investigated. Specifically, the experiments were designed to determine whether compounds that act via interaction with specific bacterial proteins (“target-specific”) can be distinguished from those acting via non-specific mechanisms, solely on the basis of differences in signature metabolic profiles. In addition, the experiments were designed to determine whether different interactors of the same pathway produce a similar signature profile, as well as whether interactors of different pathways produce distinctly different profiles.
Twenty chemicals were selected for inclusion in these experiments. Fifteen of these, listed below in Table 3 as “single target antimicrobials” are thought to have relatively specific modes of action, whereas five antimicrobials, listed as “multiple target antimicrobials” are thought to have non-specific modes of action.
An initial set of experiments was performed to select the concentrations of each chemical as it was desirable to use a partially inhibitory concentration. A completely inhibitory or sub-inhibitory concentration would not provide any information. Partial inhibitory levels were determined using the criterion of decreased formation of purple color due to inhibition of tetrazolium violet reduction (i.e., respiration). Each compound was tested at two concentrations giving partial inhibition of respiration. The lower concentration, referred to as “1x,” was the lowest concentration giving detectable inhibition of respiration. The higher concentration, referred to as “2x,” was twice the 1x concentration. […] Thus, only 1x and 2x concentrations were used.
In these experiments, E. coli MG1655 was tested against 20 antimicrobials at two concentrations using 7 PMs each, for a total of 280 PMs. […] Since in these experiments each PM contains 95 phenotypes, the total number of phenotypes analyzed here was 26,600. Each PM was monitored kinetically every 15 minutes using a specialized instrument described is U.S. patent application Ser. No. 09/277,353 (herein incorporated by reference) for an incubation duration of 48 hours. Thus, the total number of data points for the experiments was 5,107,200.
The results of the data collected for a run is a kinetic phenotype of the cell exposed to an antimicrobial overlaid and compared against the phenotype of the cell without exposure to the antimicrobial. When the two kinetic tracings of tetrazolium reduction (i.e., cell respiration) overlap, there is no difference in the response to that phenotype (indicated as “O”). When the control tracing exceeds the antimicrobial tracing, the organism is scored as “more sensitive” or “S.” When the antimicrobial tracing exceeds the control tracing, the organism is scored as “more resistant,” or “R.” Based on visual examination of the PMs after incubation, the threshold values for judging S and R results were determined. The software then automatically calculated the areas under the differential tracings and applied threshold values to score all 26,600 phenotypes as S, O, or R.
From the S—O—R data, a distance matrix was generated. The S—O—R response (a string of 665 values) for one antimicrobial was compared to the response for another antimicrobial, and the differences summed up. A difference of O to S or of O to R was assigned a value of 1, and a difference of S to R was assigned a value of 2. The string of 665 differences was then summed up.

With `NC(=O)c1cc[n+](CC2=C(C(=O)O)N3C(=O)[C@@H](NC(=O)[C@@H](c4ccccc4)S(=O)(=O)[O-])[C@H]3SC2)cc1` [cefsulodin], in assay [1] (in the presence of 235 μg/ml sulfamethoxazole, cefsulodin at 8 and 16 μg/ml), the “change of sensitivity of E. coli strain to panel compound” value (shortened to “change of sensitivity of E. coli strain”) is listed as “increased sensitivity”.
As to `CC(=O)O[C@H]1C[C@@]2(C)[C@@H](C[C@@H](O)[C@H]3[C@@]4(C)CC[C@@H](O)[C@@H](C)[C@@H]4CC[C@@]32C)/C1=C(\CCC=C(C)C)C(=O)O` [fusidic acid], in assay [1] (in the presence of 10 μg/ml vancomycin, fusidic acid at 200 and 400 μg/ml), the “change of sensitivity of E. coli strain” value is “increased sensitivity”.
`CO[C@@]1(NC(=O)Cc2cccs2)C(=O)N2C(C(=O)O)=C(COC(N)=O)CS[C@@H]21` [cefoxitin]: in assay [1] (in the presence of 10 μg/ml vancomycin, cefoxitin at 0.75 and 1.5 μg/ml), the “change of sensitivity of E. coli strain” value was “increased sensitivity”.
As for `N[C@@H](C(=O)N[C@@H]1C(=O)N2C(C(=O)O)=C(Cl)CS[C@H]12)c1ccccc1` [cefaclor], the “change of sensitivity of E. coli strain” value in assay [1] (in the presence of 235 μg/ml sulfamethoxazole, cefaclor at 1.33, 2.66 and 5.33 μg/ml) is reported as “increased sensitivity”.
Take `CC1(C)S[C@@H]2[C@H](NC(=O)[C@H](N)c3ccccc3)C(=O)N2[C@H]1C(=O)O` [ampicillin]: the “clustering in dendrogram of PM S-O-R response (FIG. 4)” value (“clustering in dendrogram” below) in assay [2] is given as “cluster”.
`[Cl][Co][Cl]` [cobalt chloride]: the “change of sensitivity of E. coli strain” value in assay [1] (in the presence of 235 μg/ml sulfamethoxazole, cobalt chloride 12 and 25 μg/ml) is listed as “increased sensitivity”.
Consider `CCn1cc(C(=O)O)c(=O)c2cc3c(cc21)OCO3` [oxolinic acid], for which the “clustering in dendrogram” value in assay [2] is listed as “clustered”.
For coumermycin, in assay [2], the “clustering in dendrogram” value was “clustered”.
Consider polymyxin B, for which the “PM response pattern (fingerprint) of cells exposed to the antimicrobial” value (“PM response pattern (fingerprint)” for short) in assay [2] was “more closely resembled the multiple target antimicrobials”.
`C[C@@H]1O[C@@H]1P(=O)(O)O` [phosphomycin]: the “clustering in dendrogram” value in assay [2] was “cluster”.
Still for that read-out and setting: the value for `CC[C@H](C)[C@H](N)C1=N[C@H](C(=O)N[C@@H](CC(C)C)C(=O)N[C@H](CCC(=O)O)C(=O)N[C@H](C(=O)N[C@H]2CCCCNC(=O)[C@H](CC(N)=O)NC(=O)[C@@H](CC(=O)O)NC(=O)[C@H](Cc3cnc[nH]3)NC(=O)[C@@H](Cc3ccccc3)NC(=O)[C@H]([C@@H](C)CC)NC(=O)[C@@H](CCCN)NC2=O)[C@@H](C)CC)CS1` [bacitracin] (HELM PEPTIDE1{[CC[C@H](C)[C@H](N)C1=N[C@H](C(=O)[*:2])CS1].L.[dE].I.K.[NCCC[C@@H](N[*:1])C(=O)[*:2]].I.[dF].H.[dD].N}$PEPTIDE1,PEPTIDE1,5:R3-11:R2$$$V2.0) was “cluster”.
Consider `[Cl][Ni][Cl]` [nickel chloride], for which the “change of sensitivity of E. coli strain” value in assay [1] (in the presence of 235 μg/ml sulfamethoxazole, nickel chloride at 20 and 40 μg/ml) is given as “increased sensitivity”.
With `Cc1nnc(SCC2=C(C(=O)O)N3C(=O)[C@@H](NC(=O)Cn4cnnn4)[C@H]3SC2)s1` [cefazolin], the “change of sensitivity of E. coli strain” value in assay [1] (in the presence of 10 μg/ml vancomycin, cefazolin at 2.0 and 4.0 μg/ml) is on record as “increased sensitivity”; in assay [1] (in the presence of 235 μg/ml sulfamethoxazole, cefazolin at 0.5, 1.0, 2.0 and 4.0 μg/ml) it was “increased sensitivity”.
On to `CO[C@@H]1[C@@H](OC(N)=O)[C@@H](O)[C@H](Oc2ccc3c(O)c(NC(=O)c4ccc(O)c(CC=C(C)C)c4)c(=O)oc3c2C)OC1(C)C` [novobiocin], for which the “change of sensitivity of E. coli strain” value in assay [1] (in the presence of 10 μg/ml vancomycin, novobiocin at 33 and 66 μg/ml) is given as “increased sensitivity”; in assay [1] (in the presence of 235 μg/ml sulfamethoxazole, novobiocin at 66 and 133 μg/ml), “increased resistance”.
For the compound `[Cl][Cr]([Cl])[Cl]` [chromium chloride], in assay [1] (in the presence of 235 μg/ml sulfamethoxazole, chromium chloride at 200 and 400 μg/ml), the “change of sensitivity of E. coli strain” value is “increased sensitivity”.
With `Nc1ccc(S(=O)(=O)Nc2nccs2)cc1` [sulfathiazole], the “PM response pattern (fingerprint)” value in assay [2] is reported as “more closely resembled the multiple target antimicrobials”.
As for `CCn1cc(C(=O)O)c(=O)c2ccc(C)nc21` [nalidixic acid], the “change of sensitivity of E. coli strain” value in assay [1] (in the presence of 10 μg/ml vancomycin, nalidixic acid at 1.0, 2.0 and 4.0 μg/ml) is reported as “increased sensitivity”. Further, the “clustering in dendrogram” value in assay [2] is recorded as “did not cluster with the other two DNA gyrase inhibiting chemicals”.
Consider `O=C(N[C@H](CO)[C@H](O)c1ccc([N+](=O)[O-])cc1)C(Cl)Cl` [chloramphenicol], for which the “clustering in dendrogram” value in assay [2] was “cluster”.
Regarding `COc1cc(Cc2cnc(N)nc2N)cc(OC)c1OC` [trimethoprim], the “change of sensitivity of E. coli strain” value in assay [1] (in the presence of 10 μg/ml vancomycin, trimethoprim at 0.17, 0.33, 0.67 and 1.3 ng/ml) is given as “increased sensitivity”; in assay [1] (in the presence of 235 μg/ml sulfamethoxazole, trimethoprim at 0.17, 0.33, 0.67 and 1.3 ng/ml), “increased sensitivity”.
For the compound `[H]/N=C(/N)N[C@H]1[C@H](O)[C@@H](O)[C@H](O[C@@H]2O[C@@H](C)[C@](O)(C=O)[C@H]2O[C@@H]2O[C@@H](CO)[C@H](O)[C@@H](O)[C@@H]2NC)[C@@H](N/C(N)=N\[H])[C@@H]1O` [streptomycin], the “clustering in dendrogram” value in assay [2] is “cluster”.
As for `CC(=O)OCC1=C(C(=O)O)N2C(=O)[C@@H](NC(=O)Cc3cccs3)[C@H]2SC1` [cephalothin], the “change of sensitivity of E. coli strain” value in assay [1] (in the presence of 10 μg/ml vancomycin, cephalothin at 10 and 20 μg/ml) is “increased sensitivity”; in assay [1] (in the presence of 235 μg/ml sulfamethoxazole, cephalothin at 5.0, 10 and 20 μg/ml) it was “increased sensitivity”. In addition, in assay [2], the “clustering in dendrogram” value is “cluster”.
For the compound `O=[N+]([O-])c1ncc[nH]1` [azomycin], the “change of sensitivity of E. coli strain” value in assay [1] (in the presence of 235 μg/ml sulfamethoxazole, azomycin at 0.2, 0.4, 0.8 and 1.6 μg/ml) is reported as “increased sensitivity”.
Turning to `O=C(Cc1cccs1)N[C@@H]1C(=O)N2C(C(=O)[O-])=C(C[n+]3ccccc3)CS[C@H]12` [cephaloridine], in assay [1] (in the presence of 235 μg/ml sulfamethoxazole, cephaloridine at 0.75, 1.5, 3.0 and 6.0 μg/ml), the “change of sensitivity of E. coli strain” value is “increased sensitivity”.
For `C/C=C/C/C=C/CCC(=O)[C@H]1O[C@H]1C(N)=O` [cerulenin], the “PM response pattern (fingerprint)” value in assay [2] is on record as “more closely resembled the multiple target antimicrobials”.
